Measured values: PMC10029980 (Journal of medicinal chemistry, 2022)
pEC50, pIC50: −log10 of the molar value.

Experiments:
[1] = target: human recombinant PAK1 (kinase domain) (Homo sapiens, UniProt Q13153); test: Z'-LYTE FRET kinase assay, PAK1 inhibition; format: biochemical; conditions: for PAK1 inhibitory activity and selectivity of NVS-PAK1-1 conjugates: tested for PAK1, PAK2 and PAK4 inhibition (Table S1)
[2] = target: human recombinant PAK2 (full length) (Homo sapiens, UniProt Q13177); test: Z'-LYTE FRET kinase assay, PAK2 inhibition; format: biochemical
PAK1 [3] = target: T1, PAK1 (Homo sapiens, UniProt Q13153); test: PAK1 degradation by immunoblot in MCF7 and OVCAR3 cells; format: cell-based
HEY-A8 cells = test: MTT cell proliferation, HEY-A8; format: cell-based; conditions: MTT assay, 96 hr, PAK2-dependent cells
Nluc-PAK1 = Nluc-PAK1 (Homo sapiens, UniProt Q13153+Q96SW2); test: Nluc-PAK1 luciferase quantitation of PAK1 expression; format: cell-based
[4] = tested on: phosphorylation of MEK1 at S298 and of ERK; test: MEK and ERK phosphorylation by immunoblot in OVCAR3 and MCF7 cells; format: cell-based; conditions: 10 nM, 24 hr
OVCAR3 cells = test: MTT cell proliferation, OVCAR3; format: cell-based; conditions: for pEC50: Homo sapiens, OVCAR-3, 96 h, read-out: EC50 anti-proliferative, OVCAR3
OMM1 cells = test: MTT cell proliferation, OMM1; format: cell-based; conditions: MTT assay, 96 hr, PAK2-dependent cells
MOLT4 cells proteome = test: Global multiplexed mass spectrometry proteomics in MOLT4 cells; format: cell-based, human; conditions: 1 µM, 5 hr
PAK1 [5] = target: T1, PAK1; test: PAK1 degradation in Panc1 cells; format: cell-based; conditions: compared with BJG-05-014 and BJG-05-027, Figure S2
MCF7 cells = test: MTT cell proliferation, MCF7; format: cell-based; conditions: for pEC50: Homo sapiens, MCF7, 96 h, read-out: EC50 anti-proliferative, MCF7
[6] = cited from earlier work
[7] = MCF7 and OVCAR3 cells, 24 hr treatment

T1 sequence (Q13153 whole entry): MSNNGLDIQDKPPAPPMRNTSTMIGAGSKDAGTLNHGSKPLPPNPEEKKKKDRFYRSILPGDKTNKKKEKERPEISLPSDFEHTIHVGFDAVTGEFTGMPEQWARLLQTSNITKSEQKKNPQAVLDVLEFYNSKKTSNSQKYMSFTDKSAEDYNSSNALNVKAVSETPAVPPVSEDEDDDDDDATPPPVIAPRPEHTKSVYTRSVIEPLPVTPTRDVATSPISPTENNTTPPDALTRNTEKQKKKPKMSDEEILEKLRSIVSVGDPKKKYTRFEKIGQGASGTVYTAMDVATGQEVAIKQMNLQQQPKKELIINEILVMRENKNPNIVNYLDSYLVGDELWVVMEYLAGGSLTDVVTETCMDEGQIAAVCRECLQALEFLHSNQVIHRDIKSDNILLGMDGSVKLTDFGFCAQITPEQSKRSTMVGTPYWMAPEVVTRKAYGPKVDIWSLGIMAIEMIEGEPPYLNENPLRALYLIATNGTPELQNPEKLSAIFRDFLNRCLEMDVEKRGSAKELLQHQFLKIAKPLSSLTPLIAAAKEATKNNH
Sequence of human recombinant PAK2 (full length) (Q13177 whole entry): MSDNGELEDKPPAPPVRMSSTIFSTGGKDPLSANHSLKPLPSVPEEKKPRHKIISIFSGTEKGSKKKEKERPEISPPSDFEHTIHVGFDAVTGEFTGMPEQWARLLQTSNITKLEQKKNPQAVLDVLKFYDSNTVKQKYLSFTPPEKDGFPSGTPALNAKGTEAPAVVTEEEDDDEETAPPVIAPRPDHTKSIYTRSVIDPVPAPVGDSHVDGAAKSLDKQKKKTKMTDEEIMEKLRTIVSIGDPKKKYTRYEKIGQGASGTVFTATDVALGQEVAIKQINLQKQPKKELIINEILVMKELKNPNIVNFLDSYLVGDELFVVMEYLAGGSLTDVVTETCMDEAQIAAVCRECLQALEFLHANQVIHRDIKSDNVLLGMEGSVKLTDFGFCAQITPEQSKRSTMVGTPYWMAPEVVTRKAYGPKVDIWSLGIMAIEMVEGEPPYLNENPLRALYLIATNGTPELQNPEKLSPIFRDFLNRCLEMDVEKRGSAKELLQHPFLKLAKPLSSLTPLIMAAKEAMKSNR
Sequence of human recombinant PAK1 (kinase domain) (Q13153 270-521 limits assumed): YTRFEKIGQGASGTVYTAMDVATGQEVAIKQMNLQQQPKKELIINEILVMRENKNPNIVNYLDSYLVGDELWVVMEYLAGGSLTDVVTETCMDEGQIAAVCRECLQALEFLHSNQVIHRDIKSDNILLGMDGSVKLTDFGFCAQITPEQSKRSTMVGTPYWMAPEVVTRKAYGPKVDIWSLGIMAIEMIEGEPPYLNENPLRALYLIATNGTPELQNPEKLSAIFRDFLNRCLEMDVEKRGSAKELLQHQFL
Sequence of Nluc-PAK1 (Q13153 whole entry): as the sequence (Q13153 whole entry) above
Sequence of Nluc-PAK1 (Q96SW2 whole entry): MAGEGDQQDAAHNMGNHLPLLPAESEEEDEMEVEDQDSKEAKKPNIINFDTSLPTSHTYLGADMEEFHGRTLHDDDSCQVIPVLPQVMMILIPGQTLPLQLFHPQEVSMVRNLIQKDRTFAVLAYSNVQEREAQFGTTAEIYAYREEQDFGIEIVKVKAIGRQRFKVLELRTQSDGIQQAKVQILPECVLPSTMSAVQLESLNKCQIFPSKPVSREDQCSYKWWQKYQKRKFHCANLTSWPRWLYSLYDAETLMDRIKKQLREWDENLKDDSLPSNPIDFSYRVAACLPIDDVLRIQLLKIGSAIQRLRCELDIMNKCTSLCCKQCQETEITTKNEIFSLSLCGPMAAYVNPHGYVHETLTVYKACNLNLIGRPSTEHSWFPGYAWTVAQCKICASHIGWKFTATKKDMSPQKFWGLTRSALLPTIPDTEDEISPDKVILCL
Sequence of Nluc-PAK1 (Q16531 whole entry partner): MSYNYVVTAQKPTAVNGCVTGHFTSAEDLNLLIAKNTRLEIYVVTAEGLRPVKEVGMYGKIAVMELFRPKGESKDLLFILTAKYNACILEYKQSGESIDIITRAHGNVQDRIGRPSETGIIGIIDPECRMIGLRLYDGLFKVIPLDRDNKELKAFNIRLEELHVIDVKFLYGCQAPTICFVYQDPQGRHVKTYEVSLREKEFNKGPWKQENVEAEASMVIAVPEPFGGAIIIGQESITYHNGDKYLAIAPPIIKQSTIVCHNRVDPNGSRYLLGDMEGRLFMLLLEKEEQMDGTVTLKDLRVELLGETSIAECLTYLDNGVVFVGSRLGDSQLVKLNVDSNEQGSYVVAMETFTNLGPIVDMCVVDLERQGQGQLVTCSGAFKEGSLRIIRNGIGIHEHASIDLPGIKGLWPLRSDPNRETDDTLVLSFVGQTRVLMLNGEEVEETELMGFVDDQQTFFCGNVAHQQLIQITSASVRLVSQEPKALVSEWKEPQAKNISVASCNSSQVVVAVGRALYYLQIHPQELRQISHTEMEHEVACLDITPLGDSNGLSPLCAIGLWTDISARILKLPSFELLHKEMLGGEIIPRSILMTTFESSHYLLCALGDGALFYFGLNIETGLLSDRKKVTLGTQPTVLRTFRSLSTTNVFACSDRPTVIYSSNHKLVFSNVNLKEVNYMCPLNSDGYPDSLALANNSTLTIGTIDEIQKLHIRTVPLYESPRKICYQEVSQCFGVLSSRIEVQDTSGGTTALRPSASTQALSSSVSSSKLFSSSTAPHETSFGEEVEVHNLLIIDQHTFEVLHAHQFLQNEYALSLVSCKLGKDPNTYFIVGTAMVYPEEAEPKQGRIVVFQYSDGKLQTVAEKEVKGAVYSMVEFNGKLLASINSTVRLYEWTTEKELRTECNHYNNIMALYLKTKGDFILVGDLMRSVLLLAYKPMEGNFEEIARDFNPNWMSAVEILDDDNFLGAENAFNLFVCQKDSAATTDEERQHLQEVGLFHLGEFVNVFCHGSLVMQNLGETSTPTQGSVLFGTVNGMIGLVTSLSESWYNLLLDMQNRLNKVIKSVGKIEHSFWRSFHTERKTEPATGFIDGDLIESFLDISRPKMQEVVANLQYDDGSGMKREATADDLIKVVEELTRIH

For `O=C1CCC(N2C(=O)c3cccc(NCCOCCOCCC(=O)N4CC[C@H](NC5=Nc6cc(F)ccc6N(CC(F)F)c6ccc(Cl)cc65)C4)c3C2=O)C(=O)N1` (stereo partly drawn) [BJG-05-014, 4-((2-(2-(3-((S)-3-((2-chloro-5-(2,2-difluoroethyl)-8-fluoro-5H-dibenzo[b,e][1,4]diazepin-11-yl)amino)pyrrolidin-1-yl)-3-oxopropoxy)ethoxy)ethyl)amino)-2-(2,6-dioxopiperidin-3-yl)isoindoline-1,3-dione], the “PAK1 inhibitory activity and selectivity of NVS-PAK1-1 conjugates” value (shortened to “PAK1 inhibitory activity and selectivity”) [1] was “retained PAK1 inhibitory activity and selectivity”.

In the case of `O=C1CCC(N2C(=O)c3cccc(NCCCCCNC(=O)N4CC[C@H](NC5=Nc6cc(F)ccc6N(CC(F)F)c6ccc(Cl)cc65)C4)c3C2=O)C(=O)N1` (stereo partly drawn) [BJG-05-027, (3S)-3-((2-chloro-5-(2,2-difluoroethyl)-8-fluoro-5H-dibenzo[b,e][1,4]diazepin-11-yl)amino)-N-(5-((2-(2,6-dioxopiperidin-3-yl)-1,3-dioxoisoindolin-4-yl)amino)pentyl)pyrrolidine-1-carboxamide], the “PAK1 inhibitory activity and selectivity” value [1] was “retained PAK1 inhibitory activity and selectivity”.

In the case of `O=C1CCC(N2C(=O)c3cccc(NCCCCCCCCNC(=O)N4CC[C@H](NC5=Nc6cc(F)ccc6N(CC(F)F)c6ccc(Cl)cc65)C4)c3C2=O)C(=O)N1` (stereo partly drawn) [BJG-05-039, (3S)-3-((2-chloro-5-(2,2-difluoroethyl)-8-fluoro-5H-dibenzo[b,e][1,4]diazepin-11-yl)amino)-N-(8-((2-(2,6-dioxopiperidin-3-yl)-1,3-dioxoisoindolin-4-yl)amino)octyl)pyrrolidine-1-carboxamide], the pIC50 [2] was less than 5.00, the “increase of selectivity over PAK2 relative to NVS-PAK-1” value ([2]; Table S1) was “more than ten-fold” and the “reduction in PAK1 levels by immunoblot” value (PAK1 [3]; Figure 2A) was ~ 50%. The “concentration at which diminished PAK1 degradation (hook effect) was observed” value (PAK1 [3]; [7]) was no less than 1 µM, the “concentration of maximal PAK1 degradation” value (PAK1 [3]; [7]) was 10 nM and the PAK1 degradation (PAK1 [3]; MCF7 and OVCAR3 cells, 24 hr treatment, immunoblot) was “induced degradation of PAK1”. For the same compound, the “time to partial degradation of PAK1” value (PAK1 [3]; MCF7 cells, 10 nM) was no more than 4 h, the “PAK1 degradation on co-treatment with bortezomib (proteasome inhibitor)” value (PAK1 [3]; co-treatment with bortezomib) was “prevented PAK1 destabilization” and the “anti-proliferative activity, HEY-A8” value (HEY-A8 cells) was “did not show increased efficacy relative to NVS-PAK1-1”. For the same compound, the “maximal loss of the PAK1 protein achieved” value (Nluc-PAK1) was no more than 70%, the “reduction in PAK1 expression” value (Nluc-PAK1; 10 nM, Nluc-PAK1 cells, 24 hr) was “approximately 70%” and the “phosphorylation of ERK” value [4] was “inhibiting phosphorylation of ERK”. The “phosphorylation of MEK S298” value [4] was “inhibited phosphorylation of MEK S298”, the pEC50 (OVCAR3 cells) was 7.00 and the “anti-proliferative activity, OMM1” value (OMM1 cells) was “did not show increased efficacy relative to NVS-PAK1-1”. For the same compound, the “PAK1 inhibitory activity and selectivity” value [1] was “retained PAK1 inhibitory activity and selectivity”, the “downregulation of PAK1 in proteomic analysis” value (MOLT4 cells proteome) was “significant downregulation of this kinase was not apparent” and the “downregulation of RNF166, Ikaros (IKZF1) and Aiolos (IKZF3)” value (MOLT4 cells proteome) was “strongly downregulated”. For the same compound, the “PAK1 degradation profile in Panc1 cells” value (PAK1 [5]) was “most promising profile” and the pEC50 (MCF7 cells) was 7.07.

With `Cc1ccc(CO)cc1N(Cc1ccccc1C#N)c1nc(Nc2ccc(N3CCN(CCOCCOCCNc4cccc5c4C(=O)N(C4CCC(=O)NC4=O)C5=O)CC3)c(S(C)(=O)=O)c2)ncc1F` (centres unmarked) [BJG-05-093, 2-(((2-((4-(4-(2-(2-(2-((2-(2,6-dioxopiperidin-3-yl)-1,3-dioxoisoindolin-4-yl)amino)ethoxy)ethoxy)ethyl)piperazin-1-yl)-3-(methylsulfonyl)phenyl)amino)-5-fluoropyrimidin-4-yl)(5-(hydroxymethyl)-2-methylphenyl)amino)methyl)benzonitrile] the “inhibitor activity of linker conjugates of an ATP-competitive PAK1 inhibitor” value ([1]; Table S1) was “retained inhibitor activity”.

In the case of `CC(C)NC(=O)N1CC[C@H](NC2=Nc3cc(F)ccc3N(CC(F)F)c3ccc(Cl)cc32)C1` [NVS-PAK1-1], the pIC50 [2] is given as 6.08, the in vivo half-life [6] is given as “short in vivo half-life” and the “phosphorylation of ERK” value [4] is given as “no visible impact”. The “phosphorylation of MEK S298” value [4] was “no visible impact”, the pEC50 (OVCAR3 cells) was 5.05 and the “effect of combination with PAK shRNA on MCF7 cells” value (MCF7 cells; 100 nM, MCF7 cells with PAK shRNA) was “lethal”. It also gave a pEC50 (MCF7 cells) of 4.93.

With `Nc1cccc2c1CN(C1CCC(=O)NC1=O)C2=O` (centres unmarked) [lenalidomide] the “anti-proliferative activity, OVCAR3” value (OVCAR3 cells; MTT assay, 96 hr) was “lacked significant antiproliferative effects” and the “anti-proliferative activity, MCF7” value (MCF7 cells; MTT assay, 96 hr) was “lacked significant antiproliferative effects”.
